Data reported in US6737383B1, “Herbicidal oxadiazolidines” (priority 1999, dated 2004).

Experiments:
bedstraw = experiment: Test B pre/postemergence bedstraw; assay type: in vivo, Galium aparine; conditions: Postemergence; for Plant response rating, Bedstraw: scale 0 to 10, 0 is no effect, 10 is complete control; for Bedstraw plant response rating: scale of 0 to 10 where 0 is no effect and 10 is complete control
Summary of the method: (§1)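 Test chemicals in a non-phytotoxic solvent mixture with surfactant were sprayed preemergence onto planted seeds and postemergence onto plants 2 to 18 cm tall (1- to 4-leaf stage). After twelve to sixteen days in a greenhouse, injury was visually rated against untreated controls from 0 (no effect) to 10 (complete control).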

blackgrass = experiment: Test B pre/postemergence blackgrass; assay type: in vivo, Alopecurus myosuroides
Summary of the method: as §1

surinam grass = experiment: Test B pre/postemergence surinam grass; assay type: in vivo, Brachiaria decumbens
Summary of the method: as §1

cocklebur = experiment: Test B pre/postemergence cocklebur; assay type: in vivo, Xanthium strumarium
Summary of the method: as §1

corn = experiment: Test B pre/postemergence corn; assay type: in vivo, Zea mays
Summary of the method: as §1

crabgrass = experiment: Test B pre/postemergence crabgrass; assay type: in vivo, Digitaria sanguinalis
Summary of the method: as §1

giant foxtail = experiment: Test B pre/postemergence giant foxtail; assay type: in vivo, Setaria faberii
Summary of the method: as §1

morningglory = experiment: Test B pre/postemergence morningglory; assay type: in vivo, Ipomoea hederacea
Summary of the method: as §1

pigweed = experiment: Test B pre/postemergence pigweed; assay type: in vivo, Amaranthus retroflexus
Summary of the method: as §1

rape = experiment: Test B pre/postemergence rape; assay type: in vivo, Brassica napus
Summary of the method: as §1

soybean = experiment: Test B pre/postemergence soybean; assay type: in vivo, Glycine max
Summary of the method: as §1

sugar beet = experiment: Test B pre/postemergence sugar beet; assay type: in vivo, Beta vulgaris
Summary of the method: as §1

velvetleaf = experiment: Test B pre/postemergence velvetleaf; assay type: in vivo, Abutilon theophrasti
Summary of the method: as §1

wheat = experiment: Test B pre/postemergence wheat; assay type: in vivo, Triticum aestivum
Summary of the method: as §1

wild oat = experiment: Test B pre/postemergence wild oat; assay type: in vivo, Avena fatua
Summary of the method: as §1

purple nutsedge = experiment: Test B pre/postemergence purple nutsedge; assay type: in vivo, Cyperus rotundus
Summary of the method: as §1

rice = experiment: Test B flood test rice; assay type: in vivo, Oryza sativa
Summary of the method: (§2)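 Plants were grown to the 2-leaf stage before treatment with test chemical, then held in a greenhouse for twelve to sixteen days. Injury was visually rated against untreated controls on a 0–10 scale, where 0 is no effect and 10 is complete control.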

smallflower flatsedge = experiment: Test B flood test smallflower flatsedge; assay type: in vivo, Cyperus difformis
Summary of the method: as §2

duck salad = experiment: Test B flood test duck salad; assay type: in vivo, Heteranthera limosa; conditions: for Plant response rating, Ducksalad: scale 0 to 10, 0 is no effect, 10 is complete control; for Ducksalad plant response rating: scale of 0 to 10 where 0 is no effect and 10 is complete control
Summary of the method: as §2

bamyardgrass = experiment: Test B flood test barnyardgrass; assay type: in vivo, Echinochloa crus-galli; conditions: for Plant response rating, Barnyardgrass: scale 0 to 10, 0 is no effect, 10 is complete control; for Barnyardgrass plant response rating: scale of 0 to 10 where 0 is no effect and 10 is complete control
Summary of the method: as §2

[1] = Postemergence, Rate 125 g/ha, scale 0 to 10, 0 is no effect, 10 is complete control
[2] = Postemergence, Rate 250 g/ha, scale 0 to 10, 0 is no effect, 10 is complete control
[3] = Postemergence, Rate 500 g/ha, scale of 0 to 10 where 0 is no effect and 10 is complete control
[4] = Preemergence, Rate 62 g/ha, scale 0 to 10 (0 no effect, 10 complete control)
[5] = Preemergence, Rate 125 g/ha, scale of 0 to 10 where 0 is no effect and 10 is complete control
[6] = Preemergence, Rate 250 g/ha, scale of 0 to 10 where 0 is no effect and 10 is complete control
[7] = Preemergence, Rate 500 g/ha, scale 0 to 10, 0 is no effect, 10 is complete control
[8] = Rate 62 g/ha, Postemergence, scale of 0 to 10 where 0 is no effect and 10 is complete control
[9] = Preemergence, Rate 250 g/ha, scale 0 to 10, 0 is no effect, 10 is complete control
[10] = Postemergence section (flood test species), Rate 500 g/ha, scale of 0 to 10 where 0 is no effect and 10 is complete control
[11] = flood test species, listed under Postemergence, Rate 250 g/ha, scale 0 to 10, 0 is no effect, 10 is complete control
[12] = Postemergence (flood test), Rate 125 g/ha
[13] = Postemergence section (flood test species), Rate 500 g/ha
[14] = Rate 62 g/ha, Postemergence (flood test species)
[15] = flood test species, listed under Postemergence, Rate 250 g/ha

CSCCn1c(=O)on(C(=O)N(c2ccccc2)C(C)C)c1=O [Compound 419]
Plant response rating, Bedstraw (bedstraw; Rate 125 g/ha): 0 | Plant response rating, Bedstraw (bedstraw; Rate 250 g/ha): 0 | Bedstraw plant response rating (bedstraw; Rate 500 g/ha): 0 | Bedstraw plant response rating (bedstraw; Rate 62 g/ha): 0 | Plant response rating, Blackgrass (blackgrass; [1]): 0 | Plant response rating, Blackgrass (blackgrass; [2]): 0 | Blackgrass plant response rating (blackgrass; [3]): 4 | Plant response rating, Blackgrass (blackgrass; [4]): 0 | Plant response rating, Blackgrass (blackgrass; [5]): 0 | Blackgrass plant response rating (blackgrass; [6]): 0 | Blackgrass plant response rating (blackgrass; [7]): 3 | Blackgrass plant response rating (blackgrass; [8]): 0 | Plant response rating, B. signalgrass (surinam grass; [1]): 0 | Plant response rating, B. signalgrass (surinam grass; [2]): 0 | B. signalgrass plant response rating (surinam grass; [3]): 2 | Plant response rating, B. signalgrass (surinam grass; [4]): 0 | Plant response rating, B. signalgrass (surinam grass; [5]): 0 | B. signalgrass plant response rating (surinam grass; [6]): 2 | B. signalgrass plant response rating (surinam grass; Preemergence, Rate 500 g/ha, scale of 0 to 10 where 0 is no effect and 10 is complete control): 8 | B. signalgrass plant response rating (surinam grass; [8]): 0 | Plant response rating, Cocklebur (cocklebur; [1]): 0 | Plant response rating, Cocklebur (cocklebur; [2]): 0 | Cocklebur plant response rating (cocklebur; [3]): 0 | Plant response rating, Cocklebur (cocklebur; [4]): 0 | Plant response rating, Cocklebur (cocklebur; [5]): 0 | Cocklebur plant response rating (cocklebur; [9]): 0 | Cocklebur plant response rating (cocklebur; [7]): 0 | Cocklebur plant response rating (cocklebur; [8]): 0 | Plant response rating, Corn (corn; [1]): 0 | Plant response rating, Corn (corn; [2]): 0 | Corn plant response rating (corn; [3]): 0 | Plant response rating, Corn (corn; [4]): 0 | Plant response rating, Corn (corn; [5]): 0 | Corn plant response rating (corn; [9]): 0 | Corn plant response rating (corn; [7]): 0 | Corn plant response rating (corn; [8]): 0 | Plant response rating, Crabgrass (crabgrass; [1]): 0 | Plant response rating, Crabgrass (crabgrass; [2]): 0 | Crabgrass plant response rating (crabgrass; [3]): 1 | Plant response rating, Crabgrass (crabgrass; [4]): 0 | Plant response rating, Crabgrass (crabgrass; [5]): 1 | Crabgrass plant response rating (crabgrass; [9]): 4 | Crabgrass plant response rating (crabgrass; [7]): 9 | Crabgrass plant response rating (crabgrass; [8]): 0 | Plant response rating, Giant foxtail (giant foxtail; [1]): 0 | Plant response rating, Giant foxtail (giant foxtail; [2]): 1 | Giant foxtail plant response rating (giant foxtail; [3]): 6 | Plant response rating, Giant foxtail (giant foxtail; [4]): 0 | Plant response rating, Giant foxtail (giant foxtail; [5]): 1 | Giant foxtail plant response rating (giant foxtail; [9]): 2 | Giant foxtail plant response rating (giant foxtail; [7]): 5 | Giant foxtail plant response rating (giant foxtail; [8]): 0 | Plant response rating, Morningglory (morningglory; [2]): 5 | Morningglory plant response rating (morningglory; [3]): 5 | Plant response rating, Morningglory (morningglory; [4]): 0 | Plant response rating, Morningglory (morningglory; [5]): 0 | Morningglory plant response rating (morningglory; [9]): 1 | Morningglory plant response rating (morningglory; [7]): 2 | Plant response rating, Redroot pigweed (pigweed; [2]): 0 | Redroot pigweed plant response rating (pigweed; [3]): 0 | Plant response rating, Redroot pigweed (pigweed; [4]): 0 | Plant response rating, Redroot pigweed (pigweed; [5]): 0 | Redroot pigweed plant response rating (pigweed; [9]): 6 | Redroot pigweed plant response rating (pigweed; [7]): 10 | Plant response rating, Rape (rape; [2]): 0 | Rape plant response rating (rape; [3]): 0 | Plant response rating, Rape (rape; [4]): 0 | Plant response rating, Rape (rape; [5]): 0 | Rape plant response rating (rape; [9]): 2 | Rape plant response rating (rape; [7]): 2 | Plant response rating, Soybean (soybean; [2]): 3 | Soybean plant response rating (soybean; [3]): 3 | Plant response rating, Soybean (soybean; [4]): 0 | Plant response rating, Soybean (soybean; [5]): 0 | Soybean plant response rating (soybean; [9]): 0 | Soybean plant response rating (soybean; [7]): 0 | Plant response rating, Sugarbeets (sugar beet; [2]): 0 | Sugarbeets plant response rating (sugar beet; [3]): 0 | Plant response rating, Sugarbeets (sugar beet; [4]): 0 | Plant response rating, Sugarbeets (sugar beet; [5]): 0 | Sugarbeets plant response rating (sugar beet; [9]): 3 | Sugarbeets plant response rating (sugar beet; [7]): 5 | Plant response rating, Velvetleaf (velvetleaf; [2]): 0 | Velvetleaf plant response rating (velvetleaf; [3]): 2 | Plant response rating, Velvetleaf (velvetleaf; [4]): 0 | Plant response rating, Velvetleaf (velvetleaf; [5]): 0 | Velvetleaf plant response rating (velvetleaf; [9]): 1 | Velvetleaf plant response rating (velvetleaf; [7]): 4 | Wheat plant response rating (wheat; [3]): 0 | Plant response rating, Wheat (wheat; [4]): 0 | Plant response rating, Wheat (wheat; [5]): 0 | Wheat plant response rating (wheat; [9]): 0 | Wheat plant response rating (wheat; [7]): 0 | Wild oats plant response rating (wild oat; [3]): 0 | Plant response rating, Wild oats (wild oat; [4]): 0 | Plant response rating, Wild oats (wild oat; [5]): 0 | Wild oats plant response rating (wild oat; [9]): 0 | Wild oats plant response rating (wild oat; [7]): 2 | Plant response rating, Nutsedge (purple nutsedge; [2]): 0 | Nutsedge plant response rating (purple nutsedge; [3]): 0 | Plant response rating, Nutsedge (purple nutsedge; [4]): 0 | Plant response rating, Nutsedge (purple nutsedge; [5]): 0 | Nutsedge plant response rating (purple nutsedge; [9]): 0 | Nutsedge plant response rating (purple nutsedge; [7]): 0 | Rice plant response rating (rice; [10]): 2 | Plant response rating, Rice (rice; [11]): 0 | S. Flatsedge plant response rating (smallflower flatsedge; [10]): 3 | Plant response rating, S. Flatsedge (smallflower flatsedge; [11]): 0 | Plant response rating, Ducksalad (duck salad; [12]): 0 | Ducksalad plant response rating (duck salad; [13]): 0 | Ducksalad plant response rating (duck salad; [14]): 0 | Plant response rating, Ducksalad (duck salad; [15]): 0 | Plant response rating, Barnyardgrass (bamyardgrass; [12]): 0 | Barnyardgrass plant response rating (bamyardgrass; [13]): 0 | Barnyardgrass plant response rating (bamyardgrass; [14]): 0 | Plant response rating, Barnyardgrass (bamyardgrass; [15]): 0
